Results on four molecules are retold here after PMC10914731, “Homo-BacPROTAC-induced degradation of ClpC1 as a strategy against drug-resistant mycobacteria” (Nature Communications, 2024).

In brackets after ≈: the same amount, converted by molar mass. Several values for one entry are separate records, joined by “and”; a condition that tells them apart may be missing. Identical values can stand only once. Like-named read-outs stand apart in the source and are kept apart here. *1 amine or outer side, *2 acyl side, *3 side chain or, on linkers, in order; H or OH if unused. Where a SMILES comes first, the peptide text is derived from it. [ ]: non-standard residue; d: D form. X1 = C#CCn1cc(C[C@H](N[*:1])C(=O)[*:2])c2ccccc21; NMeLeu(5-OH,4R) = CN[C@@H](C[C@@H](C)CO)C(=O)O; NMeL = CN[C@@H](CC(C)C)C(=O)O

Series [1] is classed as in vitro ADME, Rat.
Series [2] is described as follows: Microsomal stability, human. Format: in vitro ADME. The protocol: (§1) The kinetics of compound degradation in liver microsomes is assessed in an assay with 1 µmol/l of compound and 0.5 mg/ml liver microsomes in a medium of 100 mM Tris-HCl pH 7.5, 6.5 mM MgCl2 and 1 mM NADPH at 37 °C. The reaction is stopped at multiple time points by adding acetonitrile. After centrifugation, the compound concentration is measured in the supernatants by high-performance liquid chromatography (HPLC) tandem mass spectrometry (MS/MS). The results are fitted to a first-order decay and the half-lives are converted to clearance (stated as % of the liver blood flow (%Qh)) using the well-stirred liver model.

The nature of series [3]: Hepatocyte stability, mice. Format: in vitro ADME. As to conditions: clearance in hepatocytes. A digest of the protocol: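 Cryopreserved mouse hepatocytes (about 1 million cells/mL, pH 7.4, 50% species serum) incubated with 1 µM compound, DMSO <0.05%, at 37 °C for up to 6 h, sampled at 6 time points. Parent remaining measured by HPLC-MS/MS; half-life converted via well-stirred liver model to clearance as % Qh.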

The format of series [4] is in vitro ADME, Human.
Series [5] is classed as in vitro ADME, Rat. The protocol: as §1
The source holds these as a separate data set.

Series [6] has as its target ClpC1 NTD protein (M. tuberculosis) (Mycobacterium tuberculosis, UniProt P9WPC9). Kind of series: biochemical. Format: binding.
The nature of another series: in vitro. As to conditions: human; for Papp A→B: apical to basolateral; for Papp B→A: basolateral to apical. In a few lines:
(§2)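 Values are bidirectional Caco-2 apparent permeabilities, P(A−B) and P(B−A), given in 10^-6 cm s-1. The efflux ratio divides P(B−A) by P(A−B), and intrinsic permeability averages the two directions.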

The next series has as its system Caco-2 monolayers. Kind of series: in vitro. In a few lines: as §2
The format of series [7] is in vitro ADME, Mice. As for the experimental part: as §1
The subject of a further series is Mtb # 8673. Kind of series: microbe, parasite or virus in culture. The class given is cell-based.
In a further series the test system is Mtb ATCC 35825. Kind of series: microbe, parasite or virus in culture. Format: cell-based.
The subject of another series is Mtb # 11291. Kind of series: microbe, parasite or virus in culture. The class given is cell-based. As to conditions: for MIC: read-out: MIC Mtb # 11291.
[8] abbreviates: Mycobacterium tuberculosis, mean, n = 2 well replicates.
[9] abbreviates: Mycobacterium tuberculosis, single well replicates.
Where [10] appears, read: Mycobacterium tuberculosis, ATCC35825, mean, n = 2 well replicates.
[11] abbreviates: Mycobacterium tuberculosis, ATCC35825, single well replicates.

Sequence of ClpC1 NTD protein (M. tuberculosis) (P9WPC9 1-156, looked up, natural form): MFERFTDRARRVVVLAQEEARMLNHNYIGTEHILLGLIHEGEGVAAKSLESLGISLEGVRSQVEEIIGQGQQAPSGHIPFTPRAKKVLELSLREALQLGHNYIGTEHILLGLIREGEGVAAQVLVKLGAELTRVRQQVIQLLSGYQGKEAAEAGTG

With `C#CCn1cc(C[C@@H]2NC(=O)[C@H](C(C)C)NC(=O)[C@H](CC(C)C)N(C)C(=O)[C@H](C(C)C)NC(=O)[C@H](Cc3ccccc3)NC(=O)[C@H](C)NC(=O)[C@H](C[C@@H](C)CO)N(C)C2=O)c2ccccc21` [SI-72] (cyclo(AFV[NMeL]V[X1][NMeLeu(5-OH,4R)])), in series [1] (Rat), the “Hepatocyte Stability Rat QH” value was 81.5% and 81.75%. The “Hepatocyte Rat” value in series [1] (clearance in hepatocytes) came to 82 %Qh. For the same molecule, the “Microsomal Stability Human QH” value in series [2] (Human) was more than 88.400%. For the same molecule, the “Microsomal Stability Human” value in series [2] (clearance in microsomes) is recorded as more than 88 %Qh. Moreover, the “Hepatocyte Mice” value in [3] worked out at 71 %Qh. The “Hepatocyte Stability Human QH” value in series [4] (Human) was 23.35% and 19.57%. Besides, the “Hepatocyte Human” value in series [4] (clearance in hepatocytes) is 12 %Qh. The “Microsomal Stability Rat QH” value in series [5] (Rat) turned out to be 87.300%. For the same molecule, the “Microsomal Stability Rat” value in series [5] (clearance in microsomes) is 87 %Qh. Further, the Kd in series [6] (SPR (Supplementary Table 1), read-out: KD ClpC1-NTD Mean ± SD) was 14 ± 6 nM; in series [6] (SPR, single independent measurements, read-out: KD ClpC1-NTD), 17.7 nM and 9.9 nM. In addition, in series [6] (SPR, single independent measurements), the “koff ClpC1-NTD” value amounted to 0.05 s⁻¹. Besides, the off-rate constant (koff) in [6] (SPR, single independent measurements, read-out: koff ClpC1-NTD) was determined as 0.07 s⁻¹. The efflux ratio in “in vitro” (Caco-2) is 61.4. In addition, the Papp A→B in the series “in vitro” (Caco-2, CACO permeability PEAB) came out at 0.17 ×10⁻⁶ cm/s; in “in vitro” (Caco-2, Caco-2 permeability P (A-B)), 0.2 ×10⁻⁶ cm/s. Moreover, the Papp B→A amounted to 15 ×10⁻⁶ cm/s in the series “in vitro” (Caco-2, CACO permeability PEBA) and 12.5 ×10⁻⁶ cm/s in the series “in vitro” (Caco-2, Caco-2 permeability P (B-A)). Further, in the series with Caco-2 monolayers (apical to basolateral), the “CACO permeability PEAB” value came out at 0.29000000000000003 ×10⁻⁶ cm/s. Further, the “CACO permeability PEBA” value in the series on Caco-2 monolayers (basolateral to apical) was 9.999999999999999 ×10⁻⁶ cm/s. Further, the “Caco-2 Int. Perm” value in the series on Caco-2 monolayers (mean value of P(A−B) and P(B−A)) is listed as 6.4 10-6 cm s-1. For the same molecule, the “Microsomal Stability Mouse QH” value in series [7] (Mouse) was more than 88.400%. Moreover, the “Microsomal Stability Mice” value in series [7] (clearance in microsomes) is listed as more than 88 %Qh.
For `[H]/N=C(/N)N[C@H]1[C@H](O)[C@@H](O)[C@H](O[C@@H]2O[C@@H](C)[C@](O)(C=O)[C@H]2O[C@@H]2O[C@@H](CO)[C@H](O)[C@@H](O)[C@@H]2NC)[C@@H](N/C(N)=N\[H])[C@@H]1O` [Streptomycin], the MIC was 6.9 µM and 4 µg/mL against Mtb # 8673 (setting [8]); 6.88 µM and 4 µg/mL in the series with Mtb # 8673 (setting [9]); 6.88 µM (≈ 4 µg/mL) in the series on Mtb # 8673 (single well replicates); 27.5 µM and 16 µg/mL in the series with Mtb ATCC 35825 (setting [10]); 16 µg/mL and 27.5 µM in the series with Mtb ATCC 35825 (setting [11]); 27.51 µM (≈ 16 µg/mL) against Mtb ATCC 35825 (single well replicates). Moreover, the MIC is 0.4 µM and 0.3 µg/mL in the series with Mtb # 11291 (setting [8]); 0.43 µM and 0.25 µg/mL with Mtb # 11291 (setting [9]); 0.43 µM (≈ 0.25 µg/mL) in the series with Mtb # 11291 (single well replicates). The “MIC Mtb # 8673” value in the series with Mtb # 8673 (single well replicates) turned out to be 4 µg/mL (≈ 6.88 µM). The “MIC Mtb ATCC 35825” value with Mtb ATCC 35825 (single well replicates) worked out at 16 µg/mL (≈ 27.5 µM). In addition, the “MIC Mtb # 11291” value with Mtb # 11291 (single well replicates) was found to be 0.25 µg/mL (≈ 0.43 µM).
Turning to `CC(=O)Nc1ccc(/C=N/NC(N)=S)cc1` [Thiacetazone], the MIC in the series with Mtb # 8673 (setting [8]) is > 542 µM and > 128 µg/mL; in the series with Mtb # 8673 (setting [9]), > 542 µM and > 128 µg/mL; in the series with Mtb # 8673 (single well replicates), more than 541.68 µM; with Mtb ATCC 35825 (setting [10]), 4.2 µM and 1 µg/mL; in the series with Mtb ATCC 35825 (setting [11]), 1 µg/mL and 4.23 µM; against Mtb ATCC 35825 (single well replicates), 4.23 µM (≈ 1 µg/mL). The MIC with Mtb # 11291 (setting [8]) is 4.2 µM and 1 µg/mL; in the series with Mtb # 11291 (setting [9]) it was 4.23 µM and 1 µg/mL; with Mtb # 11291 (single well replicates), 4.23 µM (≈ 1 µg/mL). Besides, the “MIC Mtb # 8673” value against Mtb # 8673 (single well replicates) was more than 128 µg/mL. In addition, the “MIC Mtb ATCC 35825” value in the series with Mtb ATCC 35825 (single well replicates) came out at 1 µg/mL (≈ 4.23 µM). In addition, the “MIC Mtb # 11291” value in the series with Mtb # 11291 (single well replicates) was found to be 1 µg/mL (≈ 4.23 µM).
As for `Nc1ccc(C(=O)O)c(O)c1` [p-Aminosalicylic acid], the MIC in the series with Mtb # 8673 (setting [8]) is 6.5 µM and 1 µg/mL; in the series on Mtb # 8673 (setting [9]) it was 6.53 µM and 1 µg/mL; with Mtb # 8673 (single well replicates), 6.53 µM (≈ 1 µg/mL); in the series on Mtb ATCC 35825 (setting [10]), 104 µM and 16 µg/mL; with Mtb ATCC 35825 (setting [11]), 16 µg/mL and 104 µM; against Mtb ATCC 35825 (single well replicates), 104.48 µM (≈ 16 µg/mL). Also, in the series on Mtb # 11291 (single well replicates), the MIC came out at 6.53 µM (≈ 1 µg/mL). For the same molecule, in the series with Mtb # 8673 (single well replicates), the “MIC Mtb # 8673” value was found to be 1 µg/mL (≈ 6.53 µM). For the same molecule, the “MIC Mtb ATCC 35825” value with Mtb ATCC 35825 (single well replicates) was 16 µg/mL (≈ 104 µM). Besides, in the series with Mtb # 11291 (single well replicates), the “MIC Mtb # 11291” value amounted to 1 µg/mL (≈ 6.53 µM).
